# Assay results taken from patent US20240217969A1, “SUBSTITUTED PYRROLE CARBOXAMIDES, PROCESS FOR THEIR PREPARATION AND THEIR USE AS KINASE INHIBITORS” (priority 2021, published 2024).
# Tests used:
# [1] = biological target: Cdc7 (Homo sapiens, UniProt O00311); test: Cdc7 biochemical assay, ADPGlo assay format
# Description: The biochemical activity of compounds was determined by incubation with specific enzymes and substrate, followed by quantification of the ADP product. Compounds were 4-fold serially diluted from 10 to 0.0006 uM; in the case of the pre-incubation step, the enzyme is added to the inhibitor solution and the mixture is left to incubate for 30 minutes at room temperature (r.t.). The reaction started with the addition of the substrate and the ATP, when the enzyme was already present in the preincubation step, or substrate, ATP and enzyme when the preincubation step was not present. The concentrations of ATP, substrate and reaction buffer are described above. The assays were run in a robotized format on 384-well plates. […] At the end of the incubation time, an equal volume of ADPGlo Reagent 1 (Promega) was added to stop the reaction and to remove all unreacted ATP. After 60 minutes, an equal volume of ADPGlo Reagent 2 (Promega) was added to convert ADP in ATP and then ATP in light by luciferase reaction.
# y=bottom+(top−bottom)/(1+10^((log IC50−x)*slope))
# where x is the logarithm of the inhibitor concentration, y is the response; y starts at bottom and goes to top with a sigmoid shape.
# [2] = biological target: T1, aldehyde oxidases (human liver cytosol) (Homo sapiens, UniProt Q06278); format: in vitro ADME; settings: human liver cytosol 1 mg/mL, 1 μM compound; for HLC % remaining (1 h incub.): 60 min incubation; for HLC % remaining (1 h incub.) / HLC T½ min: pH 7.4, 37° C.; for IntCl (Intrinsic Clearance): half-life approach
# T1 construct: added to human liver cytosol (1 mg/mL protein content); from tissue; host or cells: human liver cytosol
# Description: The aldehyde oxidases involvement in the metabolism of the test item was determined by comparison of the intrinsic clearance values in the presence and absence of aldehyde oxidases inhibitor hydralazine hydrochloride. The purpose of the study was to evaluate the in-vitro intrinsic clearance, the metabolic stability towards aldehyde oxidases (AO) activity and the metabolism of the test item in human liver cytosol. The intrinsic clearance was determined using the half-life approach, by measuring the substrate disappearance along 60 minutes incubation with human liver cytosol. Incubations were performed at the concentration of 1 μM. […] HPLC-MS/MS was used for the detection of the compound left over during the incubation. For intrinsic clearance determination samples were analyzed by high performance liquid chromatography (HPLC) on-line with mass spectrometry (MS) equipment. For the determination of aldehyde oxidases activity (i.e. positive control) of cytosol, phthalazine was incubated with human liver cytosol in presence and absence of the aldehyde oxidases inhibitor. On the day of the incubation, the compound was dissolved in DMSO at the concentration of 10 mM. Aliquots of this solution were added to the test system to a final concentration of […]. The percentage of DMSO in the final incubates was […]. Aliquots of the test item were added to human liver cytosol (1 mg/mL protein content) in Dulbecco's buffer, pH 7.4 at 37° C., to reach final concentration of 1 μM. Incubations were performed in a 48-well plate, under shaking. At 0, 5, 10, 20, 30 and 60 minutes incubation, 50 μL aliquots of the incubate were sampled, poured in 80 μL of ice-cold acetonitrile and 20 μL of 1 μM warfarin in acetonitrile (injection control) and centrifuged at 2500 rpm for 20 minutes. The supernatant was immediately analysed by LC-MS/MS.
# The test item was incubated in parallel, in duplicate, at the concentration of 1 μM in Dulbecco's buffer, pH 7.4 for 60 min at 37° C. in the presence of 10 μM hydralazine hydrochloride (aldehyde oxidases inhibitor).
# The chemical stability of the test item was checked in parallel by incubating the test item in single at the concentration of 1 μM in Dulbecco's buffer, pH 7.4 for 60 min at 37° C. (negative control).
# The intrinsic clearance (CLint) was calculated using the half-life approach. Half-life and CLint were determined from the concentration (area counts) remaining at the different sampling points using the LC-MS/MS method. By plotting the natural logarithmic area of the compound remaining against the time, the slope was calculated by linear regression analysis and converted into the half-life (t½) and CLint expressed as μL/min/mg protein according to the following formulae: […]
# Sequence of Cdc7 (O00311 whole entry): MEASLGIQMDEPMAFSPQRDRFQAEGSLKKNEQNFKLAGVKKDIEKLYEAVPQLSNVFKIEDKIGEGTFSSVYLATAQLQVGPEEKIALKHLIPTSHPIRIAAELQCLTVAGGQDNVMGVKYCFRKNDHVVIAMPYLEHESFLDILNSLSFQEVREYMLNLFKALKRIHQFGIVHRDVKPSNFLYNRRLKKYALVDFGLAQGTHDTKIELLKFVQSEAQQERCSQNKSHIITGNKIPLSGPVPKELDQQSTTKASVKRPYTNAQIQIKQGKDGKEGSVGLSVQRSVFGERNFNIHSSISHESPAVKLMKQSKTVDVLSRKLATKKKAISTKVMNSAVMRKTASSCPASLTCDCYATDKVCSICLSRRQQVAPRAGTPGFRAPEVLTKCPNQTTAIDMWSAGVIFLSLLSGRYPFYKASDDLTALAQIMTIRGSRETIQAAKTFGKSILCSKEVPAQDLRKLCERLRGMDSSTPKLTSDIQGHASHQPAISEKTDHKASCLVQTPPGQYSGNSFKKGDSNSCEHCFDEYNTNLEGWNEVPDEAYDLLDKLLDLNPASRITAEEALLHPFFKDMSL
# Sequence of Cdc7 (Q9UBU7 whole entry partner): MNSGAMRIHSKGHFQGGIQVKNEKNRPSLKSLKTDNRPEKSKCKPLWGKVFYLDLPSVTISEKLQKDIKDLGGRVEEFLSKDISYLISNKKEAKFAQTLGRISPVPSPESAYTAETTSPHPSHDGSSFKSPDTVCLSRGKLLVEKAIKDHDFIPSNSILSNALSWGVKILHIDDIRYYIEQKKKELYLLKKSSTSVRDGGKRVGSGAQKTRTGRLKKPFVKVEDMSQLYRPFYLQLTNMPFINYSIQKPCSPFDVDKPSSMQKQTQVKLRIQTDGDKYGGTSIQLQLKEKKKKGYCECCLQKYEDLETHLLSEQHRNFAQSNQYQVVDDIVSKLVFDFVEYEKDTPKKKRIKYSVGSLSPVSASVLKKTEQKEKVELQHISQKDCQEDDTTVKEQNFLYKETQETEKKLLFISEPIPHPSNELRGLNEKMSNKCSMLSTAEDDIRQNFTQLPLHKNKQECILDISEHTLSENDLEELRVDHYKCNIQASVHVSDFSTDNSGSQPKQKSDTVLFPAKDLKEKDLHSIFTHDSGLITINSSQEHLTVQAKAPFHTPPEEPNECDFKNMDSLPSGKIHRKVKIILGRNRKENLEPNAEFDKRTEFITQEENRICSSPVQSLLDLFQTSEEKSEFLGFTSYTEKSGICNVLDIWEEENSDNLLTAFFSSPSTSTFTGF
# T1 sequence (Q06278 whole entry): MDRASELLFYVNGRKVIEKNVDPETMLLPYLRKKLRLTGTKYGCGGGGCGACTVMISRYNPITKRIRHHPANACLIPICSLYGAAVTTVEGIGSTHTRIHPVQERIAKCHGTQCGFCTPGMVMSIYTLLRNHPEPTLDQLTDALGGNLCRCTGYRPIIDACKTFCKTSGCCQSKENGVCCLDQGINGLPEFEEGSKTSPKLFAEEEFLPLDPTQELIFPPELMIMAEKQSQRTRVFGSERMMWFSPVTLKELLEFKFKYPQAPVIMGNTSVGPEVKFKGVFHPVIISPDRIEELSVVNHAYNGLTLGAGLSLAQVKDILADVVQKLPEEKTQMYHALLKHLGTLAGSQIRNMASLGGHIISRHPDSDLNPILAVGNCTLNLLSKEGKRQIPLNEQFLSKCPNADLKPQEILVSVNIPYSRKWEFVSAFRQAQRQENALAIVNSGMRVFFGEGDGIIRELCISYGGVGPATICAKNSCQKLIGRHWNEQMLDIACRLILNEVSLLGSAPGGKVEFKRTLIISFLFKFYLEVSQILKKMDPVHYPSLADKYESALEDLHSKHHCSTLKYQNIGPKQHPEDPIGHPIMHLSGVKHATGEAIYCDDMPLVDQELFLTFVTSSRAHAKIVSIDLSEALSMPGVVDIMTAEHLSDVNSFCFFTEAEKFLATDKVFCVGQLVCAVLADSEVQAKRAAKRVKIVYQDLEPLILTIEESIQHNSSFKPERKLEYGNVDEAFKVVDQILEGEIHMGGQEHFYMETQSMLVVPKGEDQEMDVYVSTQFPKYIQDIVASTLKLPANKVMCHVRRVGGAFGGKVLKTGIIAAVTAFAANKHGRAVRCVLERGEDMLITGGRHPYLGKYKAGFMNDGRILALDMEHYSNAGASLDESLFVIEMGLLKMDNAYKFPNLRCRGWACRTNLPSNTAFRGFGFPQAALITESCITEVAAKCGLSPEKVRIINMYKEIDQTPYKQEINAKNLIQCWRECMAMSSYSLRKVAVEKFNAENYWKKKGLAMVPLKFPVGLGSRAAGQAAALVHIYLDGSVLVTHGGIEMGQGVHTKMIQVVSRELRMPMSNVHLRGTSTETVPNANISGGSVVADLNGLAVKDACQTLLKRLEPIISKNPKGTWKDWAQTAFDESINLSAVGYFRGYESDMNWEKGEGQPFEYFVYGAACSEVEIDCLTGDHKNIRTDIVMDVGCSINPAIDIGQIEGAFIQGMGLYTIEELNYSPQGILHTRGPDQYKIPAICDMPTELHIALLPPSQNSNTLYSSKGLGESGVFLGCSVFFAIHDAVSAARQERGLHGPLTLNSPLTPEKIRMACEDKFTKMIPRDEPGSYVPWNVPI
SMILES,IC50 [1] [µM],HLC % remaining (1 h incub.) [2] [%],IntCl (Intrinsic Clearance) [2] [μL/min/mg protein],HLC T½ min [2] [h]
"Cc1ccc(-c2[nH]c(-c3ccnc4[nH]ccc34)cc2C(N)=O)cc1[N+](=O)[O-] [comp 21, 2-(4-methyl-3-nitrophenyl)-5-(1H-pyrrolo[2,3-b]pyridin-4-yl)-1H-pyrrole-3-carboxamide]",0.034,–,–,–
"NC(=O)c1cc(-c2ccnc3[nH]ccc23)[nH]c1-c1ccc(F)c(F)c1 [comp 19, 2-(3,4-difluorophenyl)-5-(1H-pyrrolo[2,3-b]pyridin-4-yl)-1H-pyrrole-3-carboxamide]",0.015,–,–,–
"Cc1ccc(-c2[nH]c(-c3ccnc4[nH]ccc34)cc2C(=O)NCCN(C)C)c(F)c1 [comp 24, N-[2-(dimethylamino)ethyl]-2-(2-fluoro-4-methylphenyl)-5-(1H-pyrrolo[2,3-b]pyridin-4-yl)-1H-pyrrole-3-carboxamide]",0.741,–,–,–
"NC(=O)c1cc(-c2ccnc3[nH]ccc23)n(CCO)c1-c1ccc(Cl)cc1Cl [compound 54, 2-(2,4-dichlorophenyl)-1-(2-hydroxyethyl)-5-(1H-pyrrolo[2,3-b]pyridin-4-yl)-1H-pyrrole-3-carboxamide]",0.418,–,–,–
"Cc1ccc(-c2[nH]c(-c3ccnc4[nH]ccc34)cc2C(N)=O)c2ccccc12 [comp 32, 2-(4-methylnaphthalen-1-yl)-5-(1H-pyrrolo[2,3-b]pyridin-4-yl)-1H-pyrrole-3-carboxamide]",0.017,–,–,–
"NC(=O)c1cc(-c2csc(N)n2)[nH]c1-c1ccc(Cl)cc1Cl [compound 45, 5-(2-amino-1,3-thiazol-4-yl)-2-(2,4-dichlorophenyl)-1H-pyrrole-3-carboxamide]",–,98,2.9,3.98
"NC(=O)c1cc(-c2ccnc3[nH]ccc23)[nH]c1-c1ccc2c(c1)OCCO2 [comp 36, 2-(2,3-dihydro-1,4-benzodioxin-6-yl)-5-(1H-pyrrolo[2,3-b]pyridin-4-yl)-1H-pyrrole-3-carboxamide]",0.01,–,–,–
"NC(=O)c1cc(-c2ccnc3[nH]ccc23)[nH]c1-c1ccc(OC(F)(F)F)cc1 [comp 34, 5-(1H-pyrrolo[2,3-b]pyridin-4-yl)-2-[4-(trifluoromethoxy)phenyl]-1H-pyrrole-3-carboxamide]",0.042,–,–,–
"NC(=O)c1cc(-c2[nH]c(-c3ccnc4[nH]ccc34)cc2C(N)=O)ccc1F [comp 22, 2-(3-carbamoyl-4-fluorophenyl)-5-(1H-pyrrolo[2,3-b]pyridin-4-yl)-1H-pyrrole-3-carboxamide]",0.027,–,–,–
"Cc1ccc(-c2[nH]c(-c3ccnc4[nH]ccc34)c(I)c2C(N)=O)c(F)c1 [comp 38, 2-(2-fluoro-4-methylphenyl)-4-iodo-5-(1H-pyrrolo[2,3-b]pyridin-4-yl)-1H-pyrrole-3-carboxamide]",0.101,–,–,–
"NC(=O)c1cc(-c2ccnc3[nH]ccc23)[nH]c1-c1ccc(OC(F)F)cc1Cl [comp 17, 2-[2-chloro-4-(difluoromethoxy)phenyl]-5-(1H-pyrrolo[2,3-b]pyridin-4-yl)-1H-pyrrole-3-carboxamide]",0.001,–,–,–
"Cn1c(-c2ccnc3[nH]ccc23)cc(C(N)=O)c1-c1ccc(Cl)cc1Cl [compound 56, 2-(2,4-dichlorophenyl)-1-methyl-5-(1H-pyrrolo[2,3-b]pyridin-4-yl)-1H-pyrrole-3-carboxamide]",0.014,–,–,–
"Cc1ccc(-c2[nH]c(-c3c[nH]nc3C)cc2C(N)=O)c(F)c1 [compound 52, 2-(2-fluoro-4-methylphenyl)-5-(3-methyl-1H-pyrazol-4-yl)-1H-pyrrole-3-carboxamide]",–,100,2.9,3.98
"Cc1ccc(-c2[nH]c(-c3ccnc4[nH]ccc34)cc2C(N)=O)c(F)c1 [compound 53, 2-(2-fluoro-4-methylphenyl)-5-(1H-pyrrolo[2,3-b]pyridin-4-yl)-1H-pyrrole-3-carboxamide]",–,100,2.9,3.98
